Experimental data: patent publication US9708336B2, “Metallo-beta-lactamase inhibitors” (priority 2014, dated 2017)
Like-named read-outs stand apart in the source and are kept apart here.

Experiments:
[1] = test system: Escherichia coli expressing NDM-1 (CLB30016); assay: Antibiotic potentiation activity: synergistic concentration (MITC95) with imipenem, OD600 growth; type: cell-based
Procedure: (§1) Antibiotic Potentiation Activity: Determination of Synergistic Concentration
(§2) The bacterial strains tested included the clinical strains Escherichia coli expressing NDM-1 (CLB30005, CLB30016), Serratia marcescens expressing IMP-1 (CL5741), and Klebsiella pneumoniae expressing VIM-1 (IHMA599644) Inhibitor activity was measured in the presence and absence of imipenem in a 384-well microplate.
(§3) The clinical strains CLB30016, CL5741 and IHMA599644 were grown on trypticase soy agar containing 5% sheep's blood. The clinical strain CLB30005 was grown on Mueller Hinton broth agar containing 8 ug/ml imipenem. The bacteria on agar plates were incubated at 35° C. with humidity overnight. The following day, individual colonies from each clinical strain were picked and resuspended in 5 ml saline to attain an OD600 of 0.14, 0.11, 0.15 and 0.13, for CLB30005, CLB30016, CL5741 and IHMA599644, respectively. These were further diluted 1:100 into 1.1×CAMHB and used to inoculate the test wells as described below.
(§4) Imipenem in 10 mM 3-(N-morpholino)propanesulfonic acid (MOPS, pH 7) was stored in single use aliquots at −80° C. […] On the day of the assay, 4 μl of antibiotic was added to 45 ul of bacteria followed by 1 μl of test compound and mixed by pipetting and with an orbital shaker. The concentration of antibiotic used in the assay was 4 μg/ml, or optionally 1 μg/ml. Microplates were covered and incubated at 35° C. for 22 hours to 24 hours. At the end of the incubation, absorbance was determined using a spectrophotometer.

[2] = test system: Klebsiella pneumoniae expressing VIM-1 (IHMA599644); assay: as above; type: cell-based
Procedure: as §1, §2, §3, §4

[3] = test system: Serratia marcescens expressing IMP-1 (CL5741); assay: as above; type: cell-based
Procedure: as §1, §2, §3, §4

[4] = target: NDM-1 (Klebsiella pneumoniae, UniProt C7C422); assay: biochemical; type: biochemical; settings: read-out: NDM-1 IC50
[5] = target: VIM-1 (Pseudomonas aeruginosa (strain ATCC 15692 / DSM 22644 / CIP 104116 / JCM 14847 / LMG 12228 / 1C / PRS 101 / PAO1), UniProt A0A0F7KYQ8); assay: Enzyme activity: determination of IC50, fluorescence assay with CCF2-FA substrate (VIM-1); type: biochemical
[6] = target: IMP-1 (Serratia marcescens, UniProt P52699); assay: biochemical; type: biochemical; settings: read-out: IMP-1 IC50
[7] = Escherichia coli expressing NDM-1 (CLB30016), 95% growth inhibition
[8] = Klebsiella pneumoniae expressing VIM-1 (IHMA599644), 95% growth inhibition
[9] = Serratia marcescens expressing IMP-1 (CL5741), 95% growth inhibition
[10] = NDM-1 enzyme, CCF2-FA fluorescence assay
[11] = VIM-1 enzyme, CCF2-FA fluorescence assay, read-out: VIM-1 IC50
[12] = IMP-1 enzyme, CCF2-FA fluorescence assay
[13] = CLB30016 (NDM-1), 95% inhibition of bacterial growth
[14] = IHMA599644 (VIM-1), 95% inhibition of bacterial growth
[15] = CL5741 (IMP-1), 95% inhibition of bacterial growth
[16] = fluorescence assay with CCF2-FA substrate
[17] = VIM-1 IC50, fluorescence assay with CCF2-FA substrate
[18] = (CLB30016, NDM-1), 95% growth inhibition
[19] = Klebsiella pneumoniae IHMA599644 (VIM-1), 95% growth inhibition
[20] = Serratia marcescens CL5741 (IMP-1), 95% growth inhibition
[21] = NDM-1 enzyme, CCF2-FA substrate
[22] = VIM-1 enzyme, CCF2-FA substrate, read-out: VIM-1 IC50
[23] = IMP-1 enzyme, CCF2-FA substrate

NDM-1, sequence (C7C422 whole entry, looked up, species assumed): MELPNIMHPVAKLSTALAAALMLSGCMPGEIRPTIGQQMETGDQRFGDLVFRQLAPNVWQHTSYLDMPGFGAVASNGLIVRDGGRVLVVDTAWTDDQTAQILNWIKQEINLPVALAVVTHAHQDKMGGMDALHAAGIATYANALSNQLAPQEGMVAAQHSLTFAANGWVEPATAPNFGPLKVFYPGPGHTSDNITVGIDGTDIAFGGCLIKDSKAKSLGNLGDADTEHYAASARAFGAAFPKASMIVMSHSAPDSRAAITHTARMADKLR
IMP-1, sequence (P52699 whole entry, looked up): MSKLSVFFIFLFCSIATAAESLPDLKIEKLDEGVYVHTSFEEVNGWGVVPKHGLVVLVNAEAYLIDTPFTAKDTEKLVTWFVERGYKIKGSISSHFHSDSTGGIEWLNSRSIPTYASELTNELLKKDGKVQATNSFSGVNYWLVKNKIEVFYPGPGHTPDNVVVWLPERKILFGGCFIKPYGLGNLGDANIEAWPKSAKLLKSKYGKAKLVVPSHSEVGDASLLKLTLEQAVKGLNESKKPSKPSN

SMILES | Escherichia coli MITC95 [1, 7] | Klebsiella pneumoniae MITC95 [2, 8] | Serratia marcescens MITC95 [3, 9] | Escherichia coli MITC95 [1, 18] | Klebsiella pneumoniae MITC95 [2, 19] | Serratia marcescens MITC95 [3, 20] | IC50 [5, 22] | other results
NS(=O)(=O)c1c(CC2CCNCC2(F)F)ccc(-c2ccc(C3CCNCC3)cc2)c1-c1nn[nH]n1 (centres unmarked) [Example 465, 4-((3,3-difluoropiperidin-4-yl)methyl)-4′-(piperidin-4-yl)-2-(2H-tetrazol-5-yl)-[1,1′-biphenyl]-3-sulfonamide] | 3.125 µM | 12.5 µM | 3.125 µM | – | – | – | – | IC50 [4, 10]: 2.7 nM; IC50 [5, 11]: 1.64 nM; IC50 [6, 12]: 3.31 nM
Nc1nnc(C2CCN(c3ccc(C(F)(F)F)c(S(N)(=O)=O)c3-c3nnn[nH]3)CC2)s1 [Example 764, 3-[4-(5-amino-1,3,4-thiadiazol-2-yl)piperidin-1-yl]-2-(1H-tetrazol-5-yl)-6-(trifluoromethyl) benzenesulfonamide] | – | – | – | – | – | – | – | Escherichia coli MITC95 [1, 13]: 100 µM; Klebsiella pneumoniae MITC95 [2, 14]: >200 µM; Serratia marcescens MITC95 [3, 15]: 50 µM; IC50 [4, 16]: 273 nM; IC50 [5, 17]: 27.7 nM; IC50 [6, 16]: 68.7 nM
NS(=O)(=O)c1cccc(-c2cnc3ccc(Cl)nn23)c1-c1nnn[nH]1 [Example 652, 3-(6-chloroimidazo[1,2-b]pyridazin-3-yl)-2-(1H-tetrazol-5-yl)benzenesulfonamide] | – | – | – | 1.563 µM | 25 µM | 12.5 µM | 27.4 nM | IC50 [4, 21]: 5.37 nM; IC50 [6, 23]: 167 nM
Nc1nc2cc(-c3ccc(C(F)(F)F)c(S(N)(=O)=O)c3-c3nnn[nH]3)ccc2s1 [Example 550, 3-(2-amino-1,3-benzothiazol-5-yl)-2-(1H-tetrazol-5-yl)-6-(trifluoromethyl)benzenesulfonamide] | – | – | – | 3.125 µM | 12.5 µM | 3.125 µM | 0.315 nM | IC50 [4, 21]: 0.753 nM; IC50 [6, 23]: 2.52 nM
NS(=O)(=O)c1c(C(F)(F)F)ccc(-c2ccc(C3CN(CCC4CCNCC4)C3)cc2)c1-c1nnn[nH]1 [Example 803, 4′-[1-(2-piperidin-4-ylethyl)azetidin-3-yl]-2-(1H-tetrazol-5-yl)-4-(trifluoromethyl)biphenyl-3-sulfonamide] | – | – | – | – | – | – | – | Escherichia coli MITC95 [1, 13]: 6.25 µM; Klebsiella pneumoniae MITC95 [2, 14]: 100 µM; Serratia marcescens MITC95 [3, 15]: 6.25 µM; IC50 [4, 16]: 4.87 nM; IC50 [5, 17]: 13.2 nM; IC50 [6, 16]: 13 nM
NS(=O)(=O)c1cccc(-c2ccc3cnccc3c2)c1-c1nnn[nH]1 [Example 408, 3-(6-isoquinolyl)-2-(1H-tetrazol-5-yl)benzenesulfonamide] | 0.3906 µM | 75 µM | 4.688 µM | – | – | – | – | IC50 [4, 10]: 1.38 nM; IC50 [5, 11]: 14.9 nM; IC50 [6, 12]: 84.3 nM
NS(=O)(=O)c1c(CCC2CNC2)ccc(-c2ccc(C3CCNCC3)cc2)c1-c1nn[nH]n1 [Example 466, 4-(2-(azetidin-3-yl)ethyl)-4′-(piperidin-4-yl)-2-(2H-tetrazol-5-yl)-[1,1′-biphenyl]-3-sulfonamide] | 0.7813 µM | 1.563 µM | 1.563 µM | – | – | – | – | IC50 [4, 10]: 10.5 nM; IC50 [5, 11]: 3.72 nM; IC50 [6, 12]: 54.6 nM
NS(=O)(=O)c1c(C(F)(F)F)ccc(-c2cnn3ccccc23)c1-c1nnn[nH]1 [Example 710, 3-pyrazolo[1,5-a]pyridin-3-yl-2-(1H-tetrazol-5-yl)-6-(trifluoromethyl)benzenesulfon-amide] | – | – | – | 6.25 µM | 12.5 µM | 6.25 µM | – | IC50 [4, 21]: 0.89 nM; IC50 ([5]; VIM-1 IC50, VIM-1 enzyme, CCF2-FA substrate): 0.168 nM; IC50 [6, 23]: 2.08 nM
N=C(N)N1CCC(N)(c2ccc(-c3ccc(C(F)(F)F)c(S(N)(=O)=O)c3-c3nn[nH]n3)cc2)CC1 [Example 438, 4-amino-4-(3′-sulfamoyl-2′-(2H-tetrazol-5-yl)-4′-(trifluoromethyl)-[1,1′-biphenyl]-4-yl)piperidine-1-carboximidamide] | 0.125 µM | 2.563 µM | 0.25 µM | – | – | – | – | IC50 [4, 10]: 3.67 nM; IC50 ([5]; VIM-1 IC50, VIM-1 enzyme, CCF2-FA fluorescence assay): 10.8 nM; IC50 [6, 12]: 4.05 nM
NS(=O)(=O)c1cccc(-c2ccc(CNCc3nn[nH]n3)cc2)c1-c1nnn[nH]1 [Example 381, 2-(1H-tetrazol-5-yl)-4′-{[(2H-tetrazol-5-ylmethyl)amino]methyl}biphenyl-3-sulfonamide] | 1.563 µM | 50 µM | 0.7813 µM | – | – | – | – | IC50 [4, 10]: 2.25 nM; IC50 [5, 11]: 357 nM; IC50 [6, 12]: 25.4 nM
Cc1cc(N)ncc1-c1ccc(C(F)(F)F)c(S(N)(=O)=O)c1-c1nn[nH]n1 [Example 557, 3-(6-amino-4-methyl-3-pyridyl)-2-(2H-tetrazol-5-yl)-6-(trifluoromethyl)benzenesulfonamide] | – | – | – | 0.3906 µM | 6.25 µM | 6.25 µM | 0.656 nM | –
NS(=O)(=O)c1c(CCC2CCNCC2)ccc(-c2ccc(C3CNC3)cc2)c1-c1nnn[nH]1 [Example 598, 3-[4-(azetidin-3-yl)phenyl]-6-[2-(4-piperidyl)ethyl]-2-(1H-tetrazol-5-yl)benzenesulfonamide] | – | – | – | 1.563 µM | 1.563 µM | 3.125 µM | 4.41 nM | –
CC(C)(C)Cc1ccc(-c2cccc3sc(N)nc23)c(-c2nn[nH]n2)c1S(N)(=O)=O [Example 537, 3-(2-Aminobenzo[d]thiazol-4-yl)-6-neopentyl-2-(2H-tetrazol-5-yl)benzenesulfonamide] | – | – | – | 50 µM | >200 µM | 50 µM | 66.7 nM | –
NCc1ccc(-c2ccc(Br)c(S(N)(=O)=O)c2-c2nn[nH]n2)cc1 [Example 271, 4′-(aminomethyl)-4-bromo-2-(2H-tetrazol-5-yl)-[1,1′-biphenyl]-3-sulfonamide] | 0.3906 µM | 2.344 µM | 0.5859 µM | – | – | – | – | IC50 [5, 11]: 11.7 nM
C[N+]1(C)CCc2c(cccc2-c2ccc(C(F)(F)F)c(S(N)(=O)=O)c2-c2nn[nH]n2)C1 [Example 520, 2,2-Dimethyl-5-(3-sulfamoyl-2-(2H-tetrazol-5-yl)-4-(trifluoromethyl)phenyl)-1,2,3,4-tetrahydroisoquinolin-2-ium] | – | – | – | 3.125 µM | 3.125 µM | 3.125 µM | 1.96 nM | –
Nc1nc2c(-c3ccc(CCC4CCNCC4)c(S(N)(=O)=O)c3-c3nn[nH]n3)cccc2s1 [Example 540, 3-(2-Aminobenzo[d]thiazol-4-yl)-6-(2-(piperidin-4-yl)ethyl)-2-(2H-tetrazol-5-yl)benzenesulfonamide] | – | – | – | 1.563 µM | 12.5 µM | 6.25 µM | 6.7 nM | –
C[N+]1(C)CCC(Cc2ccc(-c3ccc(C4CNC4)cc3)c(-c3nn[nH]n3)c2S(N)(=O)=O)CC1 [Example 605, 3-[4-(azetidin-3-yl)phenyl]-6-[(1,1-dimethylpiperidin-1-ium-4-yl)methyl]-2-(2H-tetrazol-5-yl)benzenesulfonamide] | – | – | – | 6.25 µM | 3.125 µM | 6.25 µM | 3.89 nM | IC50 [6, 23]: 160 nM
